# Experimental data published in US10180422B1, “Methods of treating a neuroendocrine tumor” (Scripps Health, priority 2017, dated 2019).
# “Also recorded” adds a separate entry of the source.
# System: neuroendocrine tumor (NET) with ETV6:NTRK3 translocation
# Assay: Treatment of a NET patient with the Trk inhibitor entrectinib (case report, Example 1)
# Type: in vivo, human
# Details: for weight gain: patient
# From the text: A previously healthy patient presented with progressive low back pain and 11 kg weight loss over the previous year. They were a never-smoker, occasional alcohol drinker, and an avid runner. The patient had no relevant family history of cancer.
# A right upper quadrant ultrasound noted echogenic masses present in the liver. A computed tomography (CT) scan identified low-density liver lesions, adrenal masses, bulky retroperitoneal and pelvic lymphadenopathy, and diffuse bony disease. […] Multiple hypermetabolic liver lesions are seen, and innumerable lesions are seen throughout the skeleton (FIG. 1A). CT-guided biopsy of the left iliac bone reported well-differentiated neuroendocrine carcinoma (NETs), possibly from a lower GI source. […] Repeat CT-guided core biopsy of a right iliac soft tissue mass confirmed the absence of a high-grade component, consistent with the initial biopsy.
# The patient received 3000 cGy of palliative radiotherapy to L1-S3 in 10 fractions for pain management followed by temozolomide and capecitabine chemotherapy.
# Following chemotherapy, a tumor biopsy was obtained from the patient's lymph node, FFPE slides were prepared, and the NTRK status of the patient's NET was first analyzed by immunohistochemistry (IHC). The patient's tumor was positive for altered NTRK protein expression and the NET was subsequently analyzed by RNAseq NGS. An ETV6:NTRK3 translocation was identified in the patient's tumor and therapy was initiated with the investigational agent entrectinib, a potent oral tyrosine kinase inhibitor of TrkA, TrkB, and TrkC.
# [1] = after cycle #1 (one month) of entrectinib treatment
smiles,measurement,setting,value
"CN1CCN(c2ccc(C(=O)Nc3n[nH]c4ccc(Cc5cc(F)cc(F)c5)cc34)c(NC3CCOCC3)c2)CC1 [entrectinib, N-[5-(3,5-difluoro-benzyl)-1h-indazol-3-yl]-4-(4-methyl-piperazin-1-yl)-2-(tetrahydro-pyran-4-ylamino)-benzamide]","axial contrast-enhanced abdominal CT, left pelvic sidewall masses","after 1 cycle of entrectinib, compared with the scan after chemotherapy (FIG. 3B vs 3A)","appear swollen and measure larger, but are lower in density; also recorded: appeared swollen and measured larger, but was lower in density than the previous scan"
same,"FDG-PET imaging, skeleton / bony disease","after 2 cycles of entrectinib (FIG. 1B, right proximal femur)",improvement in the previously confluent bony disease; also recorded: clear improvement was observed in the skeleton
same,"octreoscan, overall disease (tumor) burden","after 6 months (6 cycles) of entrectinib, compared with presentation (FIG. 2B vs 2A)",significant overall reduction in tumor burden; also recorded: significant reduction in overall disease burden
same,pain and energy levels (patient-reported),[1],significant improvement in pain and energy levels
same,"clinical status (energy, activity, pain control requirements)",at 8 months on entrectinib,"normalized energy and activity, and markedly reduced pain control requirements"
same,response of liver metastases,during entrectinib treatment,"some liver metastases have responded, while others have not"
same,adverse events,patient on entrectinib up to 8 months,no notable adverse events
same,weight gain,[1],6 kg
same,weight gain,"at 8 months on entrectinib, stabilized",12 kg
same,"follow-up CT scans, pelvic nodal masses",subsequent months of entrectinib treatment,continued shrinkage of the pelvic nodal masses
